This is an account of results in ChEMBL document CHEMBL4145514, “Unexplored antifungal activity of linear battacin lipopeptides against planktonic and mature biofilms of C. albicans” (Eur J Med Chem, 2018).

Series [1] deals with Candida albicans. In words: Antibiofilm activity against Candida albicans SC5314 incubated for overnight by XTT assay. Type of series: functional. (Tetrazolium dyes change colour on reduction, which living cells bring about.)
Series [2] relates to Candida albicans. Put plainly: Induction of ROS generation in Candida albicans SC5314 after 24 to 48 hrs by DCF-DA staining based fluorescence assay. The series is classed as functional, organism-based.
For series [3], the system named is Candida albicans. In words: Ratio of MIC for Candida albicans SC5314 to MIC for Candida albicans SC5314 in presence of 400 nmol AmB. Type of series: functional.
Series [4] has as its system Candida albicans. In words: Induction of eradication of 24 hrs old preformed Candida albicans SC5314 biofilm after 24 to 48 hrs by XTT assay. The series is classed as functional.
The test system of series [5] is Candida albicans. Put plainly: Induction of morphological changes in Candida albicans SC5314 assessed as disruption of fungal cell walls at 10 times MIC after 45 mins by Uranyl acetate/Lead citrate staining based transmission electron microscopic analysis. The series is classed as functional, organism-based.
In series [6] the test system is Candida albicans. Put plainly: Synergistic antifungal activity against Candida albicans SC5314 assessed as FIC index after 48 hrs in presence of 800 nmol AmB. The series is classed as functional.
For series [7], the system named is Candida albicans. In words: Ratio of MBEC50 for 24 hrs old preformed Candida albicans SC5314 biofilm to MIC for Candida albicans SC5314. Type of series: functional.
For series [8], the system named is Candida albicans. In words: Induction of morphological changes in Candida albicans SC5314 assessed as disruption of fungal cell membranes at 10 times MIC after 45 mins by Uranyl acetate/Lead citrate staining based transmission electron microscopic analysis. The series is classed as functional, organism-based.
The subject of series [9] is Candida albicans. Put plainly: Induction of ROS generation in Candida albicans SC5314 at 0.2 to 100 uM after 24 to 48 hrs in presence of ascorbic acid by DCF-DA staining based fluorescence assay. Type of series: functional, organism-based.
Series [10] has as its system Candida albicans. Put plainly: Synergistic antifungal activity against Candida albicans SC5314 after 48 hrs in presence of 400 nmol AmB. Type of series: functional. The settings on record: SC5314, 48 h.
Series [11] concerns Candida albicans. In words: Induction of morphological changes in Candida albicans SC5314 assessed as formation of distorted shape cells at MIC after 45 mins by Uranyl acetate/Lead citrate staining based transmission electron microscopic analysis. The series is classed as functional, organism-based.
For series [12], the system named is Candida albicans. In words: Induction of morphological changes in Candida albicans SC5314 assessed as formation of abnormal curvature of cell membranes at MIC after 45 mins by Uranyl acetate/Lead citrate staining based transmission electron microscopic analysis. The series is classed as functional, organism-based.
A short description of series [13]: Haemolytic activity in mouse RBC at 1 mM incubated for 1 hr relative to control. The series is classed as ADME, cell-based, Erythrocyte. The settings on record: mouse red blood cells (erythrocytes), read-out: Activity.
In series [14] the test system is Candida albicans. In words: Ratio of MIC for Candida albicans SC5314 to MIC for Candida albicans SC5314 in presence of 800 nmol AmB. Type of series: functional.
For series [15], the system named is Candida albicans. Put plainly: Induction of eradication of 48 hrs old preformed Candida albicans SC5314 biofilm at 62.5 uM after 24 to 48 hrs by XTT assay. The series is classed as functional, organism-based.
For series [16], the system named is Candida albicans. In words: Induction of morphological changes in Candida albicans SC5314 assessed as necrosis of cytoplasm at 10 times MIC after 45 mins by Uranyl acetate/Lead citrate staining based transmission electron microscopic analysis. Type of series: functional, organism-based.
Series [17] has as its system Candida albicans. Put plainly: Synergistic antifungal activity against Candida albicans SC5314 assessed as FIC index after 48 hrs in presence of 400 nmol AmB. The series is classed as functional.
Series [18] deals with Candida albicans. In words: Antifungal activity against Candida albicans SC5314 after 48 hrs. The settings on record: SC5314, 48 h. Type of series: functional.
In series [19] the test system is Candida albicans. In words: Synergistic antifungal activity against Candida albicans SC5314 after 48 hrs in presence of 800 nmol AmB. As to conditions: SC5314, 48 h. Type of series: functional.

Molecules are shown by their SMILES. In brackets after ≈: the same amount, converted by molar mass. Activity calls are given as the source filed them. The rule behind the calls is not given here.

Usually MIC stands for the lowest concentration found to suppress growth. As for `CCC(C)CCC(=O)N[C@H](CCN)C(=O)N[C@@H](CCN)C(=O)N[C@@H](CCN)C(=O)N[C@@H](CC(C)C)C(=O)N[C@H](Cc1ccccc1)C(=O)N[C@@H](CCN)C(=O)N[C@@H](CCN)C(=O)N[C@@H](CC(C)C)C(=O)N[C@H](CCN)C(=O)N[C@@H](CCN)C(=O)N[C@@H](CCN)C(=O)N[C@@H](CC(C)C)C(=O)N[C@H](Cc1ccccc1)C(=O)N[C@@H](CCN)C(=O)N[C@@H](CCN)C(=O)N[C@@H](CC(C)C)C(=O)N[C@H](CCN)C(=O)N[C@@H](CCN)C(=O)N[C@@H](CCN)C(=O)N[C@@H](CC(C)C)C(=O)N[C@H](Cc1ccccc1)C(=O)N[C@@H](CCN)C(=O)N[C@@H](CCN)C(=O)N[C@@H](CC(C)C)C(N)=O` (some centres undefined), the MBIC50 in the series on Candida albicans [1] was 6.25 µM. Also, the Activity result in the series with Candida albicans [2] was “Dose-dependent effect”. In addition, the Ratio in the series with Candida albicans [3] is recorded as 4; with Candida albicans [7], 4; with Candida albicans [14] it was 8 - 32. The MBEC50 in the series with Candida albicans [4] worked out at 25 µM. The result with Candida albicans [5], in the series with Candida albicans [8], with Candida albicans [11], in the series with Candida albicans [12], in the series on Candida albicans [15] and with Candida albicans [16] was Active. Also, the “fractional inhibitory concentration index (FICI)” value is listed as 0.62 in the series with Candida albicans [6] and 1.25 in the series with Candida albicans [17]. In addition, the outcome with Candida albicans [9] was inactive. Further, the results for the MIC in the series on Candida albicans [10], against Candida albicans [18] and in the series on Candida albicans [19] were 1.56 µM, 6.25 µM (≈ 17.2 µg/mL) and 0.78 µM, respectively. Besides, the hemolysis at 1 h, 1000 µM in series [13] turned out to be 21%.
